Laboratory results from article PMC11276849, “A Female-Biased Chemosensory Protein PxutCSP19 in the Antennae of Papilio xuthus Tuned to Host Volatiles and Insecticides” (Insects, 2024).
Like-named read-outs stand apart in the source and are kept apart here.

Assays:
PxutCSP19 [1] = molecular target: T1, PxutCSP19 (Papilio xuthus, UniProt A0A194QJK0); test: Binding of fluorescent probe 1-NPN to wildtype PxutCSP19 (titration, Scatchard)
Procedure: (§1) In order to investigate the ligand-binding properties of PxutCSP19 to host odorants and insecticides, we first asked whether this fluorescent probe 1-NPN was available for the binding of PxutCSP19. To calculate the binding ability of PxutCSP19 to 1-NPN, we titrated different final concentrations of 1-NPN (2~20 μM) into Tris-HCl buffer (pH 7.4) containing 2 μM PxutCSP19. The binding constant (K1-NPN) of 1-NPN to this protein was determined with GraphPad Prism 7 (GraphPad Software Inc., San Diego, CA), as previously described. The solution was excited at 337 nm and the emission peak was monitored at 414 nm on an RF-5301PC spectrofluorometer (Shimadzu, Kyoto, Japan) using a quartz micro-cuvette filled with a 100 μL mixture, with 5 nm excitation and emission slit widths. If the host odorant molecules could displace more than 40% of the 1-NPN fluorescence from the binding cavity of PxutCSP19, the compounds would be continuously added up to 36 μM with triplicates. For the binding experiments, each compound would be added into the PxutCSP19/1-NPN (each 2 μM) complex with final concentrations of 2~20 μM. […]

PxutCSP19-T1 [2] = molecular target: T2, PxutCSP19-T1 (Papilio xuthus, UniProt A0A194QJK0); test: Binding of fluorescent probe 1-NPN to PxutCSP19-T1 (titration, Scatchard); conditions: read-out: K1-NPN (binding constant of 1-NPN)
T2 sequence (A0A194QJK0 35-142): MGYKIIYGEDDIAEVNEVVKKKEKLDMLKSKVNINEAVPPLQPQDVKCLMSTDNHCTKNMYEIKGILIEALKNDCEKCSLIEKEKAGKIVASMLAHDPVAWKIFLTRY
Procedure: as §1

PxutCSP19-T2 [3] = molecular target: T3, PxutCSP19-T2 (Papilio xuthus, UniProt A0A194QJK0); test: Binding of fluorescent probe 1-NPN to PxutCSP19-T2 (titration, Scatchard); conditions: read-out: K1-NPN (binding constant of 1-NPN)
T3 sequence (A0A194QJK0 53-142): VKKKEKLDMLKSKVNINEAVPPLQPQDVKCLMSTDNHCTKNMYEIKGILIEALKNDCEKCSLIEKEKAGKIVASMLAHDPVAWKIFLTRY
Procedure: as §1

PxutCSP19 [4] = molecular target: T1, PxutCSP19; test: Fluorescence competitive binding assay (1-NPN displacement), wildtype PxutCSP19; conditions: for inhibition at 20 µM: read-out: F.D. (fluorescent displacement rate of ligands), Wildtype (WT), ligand at 20 μM, PxutCSP19/1-NPN each 2 μM, NB = no binding
Source text: The open reading frame (ORF) of PxutCSP19 was cloned with a PrimeSTAR®® Max DNA Polymerase (TaKaRa, Liaoning, Dalian, China) and gene-specific primers containing restriction enzyme sites (BamH I and Xho I) (Table S2). The PCR products were detected on a 1.5% (w/v) agarose gel, and the expected bands were cut and purified using a HiPure Gel Pure DNA Mini Kit (Magen, Guangzhou, China). Next, BamH I and Xho I were used to digest the PxutCSP19 products and pET-30a (+) plasmids, followed by purification. A T4 DNA ligase (Thermo Fisher Scientific, Waltham, MA, USA) was applied to the construction of the recombinant plasmids pET-30a (+)/PxutCSP19. After being confirmed by sequencing, the plasmids were transformed into BL21 (DE3) competent cells so as to express recombinant proteins with 1.0 mM isopropyl β-D-thiogalactoside (IPTG). Because this recombinant protein pET-30a (+)/PxutCSP19 was insoluble, we applied a protein denaturation–renaturation approach to purify PxutCSP19 with an affinity chromatography technique, in which the denaturation buffer included 8 M urea and 1.0 mM β-mercaptoethanol.
(§2) In order to investigate the ligand-binding properties of PxutCSP19 to host odorants and insecticides, we first asked whether this fluorescent probe 1-NPN was available for the binding of PxutCSP19. To calculate the binding ability of PxutCSP19 to 1-NPN, we titrated different final concentrations of 1-NPN (2~20 μM) into Tris-HCl buffer (pH 7.4) containing 2 μM PxutCSP19. The binding constant (K1-NPN) of 1-NPN to this protein was determined with GraphPad Prism 7 (GraphPad Software Inc., San Diego, CA), as previously described. The solution was excited at 337 nm and the emission peak was monitored at 414 nm on an RF-5301PC spectrofluorometer (Shimadzu, Kyoto, Japan) using a quartz micro-cuvette filled with a 100 μL mixture, with 5 nm excitation and emission slit widths. If the host odorant molecules could displace more than 40% of the 1-NPN fluorescence from the binding cavity of PxutCSP19, the compounds would be continuously added up to 36 μM with triplicates. For the binding experiments, each compound would be added into the PxutCSP19/1-NPN (each 2 μM) complex with final concentrations of 2~20 μM. […] We used the Ki values to compare the binding affinities of various ligands with the equation: Ki = [IC50]/(1 + [1-NPN]/K1-NPN), where IC50 represents the ligand concentrations displacing one half of the initial protein/1-NPN fluorescence, and [1-NPN] is the free concentration of 1-NPN at 2 μM.

PxutCSP19-T1 [5] = molecular target: T2, PxutCSP19-T1; test: Fluorescence competitive binding assay (1-NPN displacement), truncated PxutCSP19-T1; conditions: for inhibition at 20 µM: T1 (17 N-terminal residues truncated), ligand at 20 μM, read-out: F.D. (fluorescent displacement rate of ligands); for Ki: Ki = [IC50]/(1 + [1-NPN]/K1-NPN)
Procedure: as §2
(§3) To determine the effects of an extended N-terminal sequence (approximately 35 amino acids) on the binding specificity of PxutCSP19 to ligands, we next constructed two truncated PxutCSP19s. Firstly, the front 17 amino acids (i.e., EITIGGIERTMSPGVKS, defined as PxutCSP19-T1) and the front 35 amino acids (i.e., […], defined as PxutCSP19-T2) of the N-terminal region without the signal peptide were truncated, respectively. Secondly, the two truncated ORFs (PxutCSP19-T1: 360 bp and PxutCSP19-T2: 306 bp) of PxutCSP19s were separately amplified using RT–PCR with gene-specific primers (Table S2). After that, the amplified products were sub-cloned into pET-30a (+), i.e., pET-30a (+)/PxutCSP19-T1 and pET-30a (+)/PxutCSP19-T2. Using the above-described methods for the expression and purification of proteins, we obtained two truncated proteins. Furthermore, the binding characteristics of the truncated PxutCSP19s to ligands with high affinities were investigated, representing six host odorants and eight insecticides.

PxutCSP19-T2 [6] = molecular target: T3, PxutCSP19-T2; test: Fluorescence competitive binding assay (1-NPN displacement), truncated PxutCSP19-T2; conditions: for inhibition at 20 µM: T2 (35 N-terminal residues truncated), ligand at 20 μM, read-out: F.D. (fluorescent displacement rate of ligands); for Ki: Ki = [IC50]/(1 + [1-NPN]/K1-NPN)
Procedure: as §2, §3

T1 sequence (A0A194QJK0 entry or part of it): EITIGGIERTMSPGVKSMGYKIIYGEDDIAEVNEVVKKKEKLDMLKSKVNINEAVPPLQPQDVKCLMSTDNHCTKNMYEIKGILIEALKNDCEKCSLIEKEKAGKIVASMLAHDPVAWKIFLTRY

Row | Ki (PxutCSP19-T1 [5]; T1) [µM] | IC50 (PxutCSP19-T1 [5]; T1, read-out: IC50) [µM] | Ki (PxutCSP19-T2 [6]; T2) [µM] | IC50 (PxutCSP19-T2 [6]; T2, read-out: IC50) [µM] | SMILES | Kd (PxutCSP19 [1]) [µM] | Kd (PxutCSP19-T1 [2]) [µM] | Kd (PxutCSP19-T2 [3]) [µM] | IC50 (PxutCSP19 [4]) [µM] | inhibition at 20 µM (PxutCSP19 [4]) [%] | inhibition at 20 µM (PxutCSP19-T1 [5]) [%] | inhibition at 20 µM (PxutCSP19-T2 [6]) [%] | IC50 (PxutCSP19-T1 [5]) [µM] | IC50 (PxutCSP19-T2 [6]) [µM]
1 | – | – | – | – | c1ccc(Nc2cccc3ccccc23)cc1 [1-NPN, N-phenyl-1-naphthylamine] | 2.65 ± 0.35 | 2.12 ± 0.47 | 2.5 ± 0.25 | – | – | – | – | – | –
2 | – | – | – | – | C=C(C)[C@H]1Cc2c(ccc3c2O[C@@H]2COc4cc(OC)c(OC)cc4[C@@H]2C3=O)O1 [Rotenone] | – | – | – | 9.15 ± 0.76 | 67.6 | 61.8 | 64.4 | 11.12 ± 0.04 | 11.3 ± 0.58
3 | 21.14 ± 0.1 | 33.64 ± 0.16 | 20.8 ± 1.1 | 31.6 ± 1.67 | CC1=CCC(=C(C)C)CC1 [Terpinolene] | – | – | – | 34.1 ± 1.31 | > 40 | 40.1 | 38.5 | – | –
4 | 19.9 ± 1.17 | 31.7 ± 1.86 | 21.6 ± 0.72 | 32.8 ± 1.09 | C=C/C(C)=C/CC=C(C)C [Ocimene] | – | – | – | 31.3 ± 1.73 | > 40 | 43.1 | 35.2 | – | –
5 | – | – | – | – | CCOP(=S)(OCC)O/N=C(\C#N)c1ccccc1 [Phoxim] | – | – | – | 2.63 ± 0.12 | 87.3 | 83.1 | 84.8 | 2.66 ± 0.2 | 3.16 ± 0.35

Row | SMILES | Ki (PxutCSP19-T1 [5]; T1) [µM] | IC50 (PxutCSP19-T1 [5]; T1, read-out: IC50) [µM] | Ki (PxutCSP19-T2 [6]; T2) [µM] | IC50 (PxutCSP19-T2 [6]; T2, read-out: IC50) [µM] | Kd (PxutCSP19 [1]) [µM] | Kd (PxutCSP19-T1 [2]) [µM] | Kd (PxutCSP19-T2 [3]) [µM] | IC50 (PxutCSP19 [4]) [µM] | inhibition at 20 µM (PxutCSP19 [4]) [%] | inhibition at 20 µM (PxutCSP19-T1 [5]) [%] | inhibition at 20 µM (PxutCSP19-T2 [6]) [%] | IC50 (PxutCSP19-T1 [5]) [µM] | IC50 (PxutCSP19-T2 [6]) [µM]
6 | O=C(NC(=O)c1c(F)cccc1F)Nc1cc(Cl)c(OC(F)(F)C(F)F)c(Cl)c1 [Hexaflumuron] | 7.78 ± 0.46 | 12.4 ± 0.73 | 8.02 ± 1.03 | 12.2 ± 1.56 | – | – | – | 12.1 ± 2.36 | 59.5 | 56.5 | 59.6 | – | –
